In ChEMBL document CHEMBL1201862, “PubChem BioAssay data set” (2004):
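The compound was tested at five concentrations on cells cultured in 96-well plates, with a 48-hour exposure period. At the GI50, growth is halved.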 Active and inactive are the calls of the source. No stated cut-off is given here; in the data, active = GI50 up to about 1.1 µM and inactive = higher.

Experiments:
Experiment in all cases: growth of human tumour cells (NCI), 48 h
HCC 2998 = tested on: HCC 2998
A549 = tested on: A549
SK-MEL-2 = tested on: SK-MEL-2
MDA-MB-435 = tested on: MDA-MB-435
NCI/ADR-RES = tested on: NCI/ADR-RES
ACHN = tested on: ACHN
LOX IMVI = tested on: LOX IMVI
U-251 = tested on: U-251
SF-539 = tested on: SF-539
CCRF-CEM = tested on: CCRF-CEM
NCI-H460 = tested on: NCI-H460
TK-10 = tested on: TK-10
K562 = tested on: K562
786-0 = tested on: 786-0
UO-31 = tested on: UO-31
OVCAR-3 = tested on: OVCAR-3
Hs-578T = tested on: Hs-578T
MDA-N = tested on: MDA-N
T47D = tested on: T47D

| SMILES | GI50 (HCC 2998) | GI50 (A549) | GI50 (SK-MEL-2) | GI50 (MDA-MB-435) | GI50 (NCI/ADR-RES) | GI50 (ACHN) | GI50 (LOX IMVI) | GI50 (U-251) | GI50 (SF-539) | GI50 (CCRF-CEM) | GI50 (NCI-H460) | GI50 (TK-10) | GI50 (K562) | GI50 (786-0) | GI50 (UO-31) | GI50 (OVCAR-3) | GI50 (Hs-578T) | GI50 (MDA-N) | GI50 (T47D) |
| --- | --- | --- | --- | --- | --- | --- | --- | --- | --- | --- | --- | --- | --- | --- | --- | --- | --- | --- | --- |
| N[C@H]1CCc2c1nc1c(c2-c2ccccc2)CC[C@@H]1N | 21.4 µM (inactive) | 34 µM (inactive) | 18.5 µM (inactive) | 15.8 µM (inactive) | 46.9 µM (inactive) | 40.1 µM (inactive) | 14 µM (inactive) | 20.5 µM (inactive) | 16.1 µM (inactive) | 17.6 µM (inactive) | 25.6 µM (inactive) | 28.3 µM (inactive) | 12.3 µM (inactive) | 14.7 µM (inactive) | – | – | – | – | – |
| CC(C)=CCC\C(C)=C/C=C/C(C)=C\C=C\C(C)=C/C=C/C=C(C)\C=C\C=C(C)/C=C/C=C(/C)CCC=C(C)C | > 100 µM (inactive) | > 100 µM (inactive) | > 100 µM (inactive) | > 100 µM (inactive) | > 100 µM (inactive) | > 100 µM (inactive) | > 100 µM (inactive) | – | > 100 µM (inactive) | > 100 µM (inactive) | – | > 100 µM (inactive) | > 100 µM (inactive) | > 100 µM (inactive) | > 100 µM (inactive) | > 100 µM (inactive) | > 100 µM (inactive) | > 100 µM (inactive) | – |
| c1ccc(COc2ccc(C[P+](c3ccccc3)(c3ccccc3)c3ccccc3)cc2)cc1 | 0.16 µM (active) | 0.184 µM (active) | 0.109 µM (active) | 0.225 µM (active) | 13.4 µM (inactive) | 0.676 µM (active) | 0.251 µM (active) | 0.102 µM (active) | 0.284 µM (active) | 0.627 µM (active) | 0.225 µM (active) | 0.251 µM (active) | 0.0556 µM (active) | 0.371 µM (active) | 2.94 µM (inactive) | 0.146 µM (active) | – | 0.221 µM (active) | < 0.0175 µM (active) |
| O=c1[nH]ncc2[nH]c3c4ccccc4ccc3c12 | 60.1 µM (inactive) | 22.2 µM (inactive) | – | 18 µM (inactive) | > 100 µM (inactive) | 27.9 µM (inactive) | 25.4 µM (inactive) | 24.8 µM (inactive) | 50.1 µM (inactive) | 46.3 µM (inactive) | 32.1 µM (inactive) | 28.6 µM (inactive) | 45.7 µM (inactive) | 61.7 µM (inactive) | 25.5 µM (inactive) | 29.6 µM (inactive) | – | 26.4 µM (inactive) | 52.8 µM (inactive) |
| Nc1nc2ncc(SCc3ccc(C(=O)NC(CCC(=O)O)C(=O)O)cc3)cc2c(=O)[nH]1 (centres undefined) | > 100 µM (inactive) | > 100 µM (inactive) | > 100 µM (inactive) | > 100 µM (inactive) | > 100 µM (inactive) | > 100 µM (inactive) | > 100 µM (inactive) | > 100 µM (inactive) | > 100 µM (inactive) | – | > 100 µM (inactive) | > 100 µM (inactive) | > 100 µM (inactive) | > 100 µM (inactive) | > 100 µM (inactive) | > 100 µM (inactive) | > 100 µM (inactive) | > 100 µM (inactive) | – |
| COC1/C=C/C=C(/C)Cc2cc(O)c(Cl)c(c2)N(C)C(=O)CC(OC(=O)C(C)C)C2(C)OC2C(C)C2CC1(O)NC(=O)O2 (centres undefined) | < 0.01 µM (active) | < 0.01 µM (active) | – | < 0.01 µM (active) | – | – | < 0.01 µM (active) | < 0.01 µM (active) | < 0.01 µM (active) | 0.394 µM (active) | < 0.01 µM (active) | – | < 0.01 µM (active) | – | < 0.01 µM (active) | < 0.01 µM (active) | – | < 0.01 µM (active) | > 100 µM (inactive) |
| CN(CCCNC(=O)c1cn(C)c2c1ccc1ccccc12)CCCNC(=O)c1cn(C)c2c1ccc1ccccc12 | 1.41 µM (inactive) | 1.35 µM (inactive) | – | 2.06 µM (inactive) | 1.77 µM (inactive) | 1.71 µM (inactive) | 1.82 µM (inactive) | 2.4 µM (inactive) | – | 2.26 µM (inactive) | 1.51 µM (inactive) | – | – | 1.87 µM (inactive) | 1.44 µM (inactive) | 1.51 µM (inactive) | 1.44 µM (inactive) | 1.45 µM (inactive) | – |
| Cc1ccc([S+]([O-])c2cccs2)cc1 (centres undefined) | – | > 100 µM (inactive) | – | > 100 µM (inactive) | > 100 µM (inactive) | > 100 µM (inactive) | – | > 100 µM (inactive) | > 100 µM (inactive) | > 100 µM (inactive) | > 100 µM (inactive) | > 100 µM (inactive) | > 100 µM (inactive) | > 100 µM (inactive) | > 100 µM (inactive) | > 100 µM (inactive) | – | > 100 µM (inactive) | > 100 µM (inactive) |
